Article PMC4710668, “Bioactivation of food genotoxicants 5-hydroxymethylfurfural and furfuryl alcohol by sulfotransferases from human, mouse and rat: a comparative study” (Archives of Toxicology, 2014)

Key:
female B6C3F1 mice [1] = assay: Two-year bioassay of HMF, oral administration; format: in vivo; conditions: 70 kg human body weight, uptake 4–30 mg per person
female B6C3F1 mice [2] = tested on: female B6C3F1 mice; set-up: method as in National Toxicology Program [2008]; conditions: oral 188 mg HMF/kg for 104 weeks, ref National Toxicology Program [2008]; cited from earlier work
hSULT4A1 = molecular target: T1, hSULT4A1 (Homo sapiens, UniProt Q9BR01); assay: FFA sulfoconjugation assay (N6-MF-A formation with adenosine as scavenger); format: biochemical
T1 construct: made in house; host or cells: Salmonella typhimurium TA1538 (cytosolic fraction, not purified)
T1 sequence (Q9BR01 1-284): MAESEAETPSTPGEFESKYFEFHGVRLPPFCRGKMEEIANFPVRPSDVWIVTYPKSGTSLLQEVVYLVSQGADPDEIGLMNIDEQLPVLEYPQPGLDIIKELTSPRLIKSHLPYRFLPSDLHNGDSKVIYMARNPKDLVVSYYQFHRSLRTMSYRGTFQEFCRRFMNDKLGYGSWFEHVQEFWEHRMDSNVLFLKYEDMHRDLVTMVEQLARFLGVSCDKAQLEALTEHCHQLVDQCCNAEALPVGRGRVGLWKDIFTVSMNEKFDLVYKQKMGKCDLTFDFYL
Method in brief: (§1)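 Quadruplicate incubations of FFA with SULT-expressing TA1538 cytosol and 10 mM adenosine, 20 min at 37 °C. Quantitation of N6-MF-A by UPLC-MS/MS with summed MRM signals against [15N5]N6-MF-A. Values were corrected by subtracting duplicate SULT-deficient cytosol controls.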

rSult1b1 = molecular target: T2, rSult1b1 (Rattus norvegicus, UniProt P52847); assay: as above; format: biochemical
T2 construct: made in house; host or cells: Salmonella typhimurium TA1538 (cytosolic fraction, enzyme not purified)
T2 sequence (P52847 whole entry): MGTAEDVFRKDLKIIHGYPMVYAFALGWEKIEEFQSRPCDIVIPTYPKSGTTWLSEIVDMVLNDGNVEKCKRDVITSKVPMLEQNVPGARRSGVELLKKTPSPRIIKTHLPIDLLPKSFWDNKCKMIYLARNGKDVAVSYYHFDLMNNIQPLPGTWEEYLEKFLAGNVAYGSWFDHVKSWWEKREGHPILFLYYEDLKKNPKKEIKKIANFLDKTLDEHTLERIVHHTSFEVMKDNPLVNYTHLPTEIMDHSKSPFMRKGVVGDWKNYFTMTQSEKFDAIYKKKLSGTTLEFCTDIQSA
Method in brief: as §1

male B6C3F1 mice = conditions: 32 ppm FFA in the air (equivalent to 60 mg FFA/kg bw/day), ref National Toxicology Program [1999]; cited from earlier work

For `O=Cc1ccc(CO)o1` [HMF, 5-Hydroxymethylfurfural], the “margin between carcinogenic dose (188 mg/kg) and human HMF uptake” value (female B6C3F1 mice [1]) is listed as 440- to 3,300 fold and the carcinogenic effect (female B6C3F1 mice [2]) is listed as “increased incidences of hepatocellular adenomas”.

With `OCc1ccco1` [FFA, furfuryl alcohol] the “Rate of N6-MF-A formation” value (hSULT4A1; 0.1 mM FFA) was under 18 fmol N ^6-MF-A/mg/min, the “Rate of N6-MF-A formation” value (hSULT4A1; 1 mM FFA) was under 20 fmol N ^6-MF-A/mg/min and the “Rate of N6-MF-A formation” value (hSULT4A1; 10 mM FFA) was under 44 fmol N ^6-MF-A/mg/min. The “Rate of N6-MF-A formation” value (rSult1b1; 0.1 mM FFA) was under 18 fmol N ^6-MF-A/mg/min, the “Rate of N6-MF-A formation” value (rSult1b1; 1 mM FFA) was 34.3 ± 1.0 fmol N ^6-MF-A/mg/min and the “Rate of N6-MF-A formation” value (rSult1b1; 10 mM FFA) was 314 ± 4 fmol N ^6-MF-A/mg/min. The carcinogenic effect (male B6C3F1 mice) was “induced renal tubule neoplasms”.
